In patent US12630643B2, “CD40 binding protein, bispecific conjugate thereof and method of treating cancer” (priority 2020, dated 2026):

T1: Canine CD40-Fc (Canis lupus familiaris, UniProt Q7YRL5)
T1 construct: purchased Sino Biological 70105-D02H
T1 sequence (Q7YRL5 21-193 limits assumed): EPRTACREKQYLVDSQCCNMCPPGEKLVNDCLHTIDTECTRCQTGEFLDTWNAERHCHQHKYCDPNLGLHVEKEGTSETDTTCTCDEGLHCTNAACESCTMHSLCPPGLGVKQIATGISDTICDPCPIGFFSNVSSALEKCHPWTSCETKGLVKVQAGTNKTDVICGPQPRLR

T2: canine (dog) CD40 (Canis lupus familiaris, UniProt Q7YRL5)
T2 sequence (Q7YRL5 21-274): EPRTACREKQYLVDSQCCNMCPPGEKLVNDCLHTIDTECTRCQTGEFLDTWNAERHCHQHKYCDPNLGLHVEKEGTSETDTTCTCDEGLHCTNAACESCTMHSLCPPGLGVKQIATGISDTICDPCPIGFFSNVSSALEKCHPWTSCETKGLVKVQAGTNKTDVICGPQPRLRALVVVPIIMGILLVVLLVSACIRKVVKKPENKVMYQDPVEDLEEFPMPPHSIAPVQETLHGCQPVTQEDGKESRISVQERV

B1: X-SM083-ab-2: agonistic anti-CD40 antibody 1150/1151 (WO 2015/091853) as hIgG2 (antibody)
heavy: EVQLLESGGGLVQPGGSLRLSCAASGFTFSSYAMSWVRQAPGKGLEWVSGIGGSSSYTSYADSVKGRFTISRDNSKNTLYLQMNSLRAEDTAVYYCARYYSYHMDYWGQGTLVTVSSASTKGPSVFPLAPCSRSTSESTAALGCLVKDYFPEPVTVSWNSGALTSGVHTFPAVLQSSGLYSLSSVVTVPSSNFGTQTYTCNVDHKPSNTKVDKTVERKCCVECPPCPAPPVAGPSVFLFPPKPKDTLMISRTPEVTCVVVDVSHEDPEVQFNWYVDGVEVHNAKTKPREEQFNSTFRVVSVLTVVHQDWLNGKEYKCKVSNKGLPAPIEKTISKTKGQPREPQVYTLPPSREEMTKNQVSLTCLVKGFYPSDISVEWESNGQPENNYKTTPPMLDSDGSFFLYSKLTVDKSRWQQGNVFSCSVMHEALHNHYTQKSLSLSPGK
light: DIQMTQSPSSLSASVGDHVTITCRASQSISSYLNWYQQKPGKAPKLLIYAASSLQSGVPSRFSGSGSGTDFTLTISSLQPEDFATYYCQQYGSAPPTFGQGTKLEIK
modifications: left off: a dimerising Fc or GST
notes: agonistic anti-CD40 antibody 1150/1151 (WO 2015/091853) as hIgG2

Legend:
[1] = molecular target: CD40 ligand interaction with CD40 (Homo sapiens, UniProt P25942); conditions: Yu et al. 2018; WO 2015/091853; cited from earlier work
Chain of CD40 ligand interaction with CD40 (P25942 21-277): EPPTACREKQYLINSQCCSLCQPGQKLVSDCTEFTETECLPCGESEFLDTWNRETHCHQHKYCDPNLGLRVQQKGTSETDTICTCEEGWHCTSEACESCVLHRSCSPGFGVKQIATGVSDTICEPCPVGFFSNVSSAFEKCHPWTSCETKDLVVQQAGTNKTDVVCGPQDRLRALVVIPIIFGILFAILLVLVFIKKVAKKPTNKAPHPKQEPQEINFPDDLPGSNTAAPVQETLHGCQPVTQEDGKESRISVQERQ

Human CD40-Fc [2] = molecular target: T3, Human CD40-Fc (Homo sapiens, UniProt P25942); test: SPR single cycle kinetics of Example 5, human CD40-Fc; set-up: purchased Sino Biological 10774-H38H; conditions: 1:1 Binding
Target sequence in this assay (P25942 21-193 limits assumed): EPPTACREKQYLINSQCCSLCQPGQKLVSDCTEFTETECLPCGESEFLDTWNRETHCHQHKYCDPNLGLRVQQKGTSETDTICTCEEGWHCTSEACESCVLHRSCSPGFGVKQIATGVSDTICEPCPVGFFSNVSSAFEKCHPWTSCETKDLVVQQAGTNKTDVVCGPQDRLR

Cynomolgus CD40-Fc = test: SPR kinetic measurements (single cycle kinetics) on captured IgG2, cCD40-Fc; conditions: for ka / kd: Cynomolgus CD40-Fc (dimer, avidity effects may contribute)
Human CD40-Fc [3] = molecular target: T3, Human CD40-Fc; test: SPR kinetic measurements (single cycle kinetics) on captured IgG2, hCD40-Fc; conditions: for ka / kd: Human CD40-Fc (dimer, avidity effects may contribute)
Target sequence in this assay (P25942 21-193): as the sequence (P25942 21-193 limits assumed) above

Canine CD40-Fc = molecular target: T1, Canine CD40-Fc; test: SPR single cycle kinetics of Example 5, canine CD40-Fc; assay type: binding
canine (dog) CD40 = molecular target: T2, canine (dog) CD40; conditions: stated in US2006-0093600; cited from earlier work
CD40 on CD19+ cells = CD40 on CD19+ cells (Homo sapiens, UniProt P25942); test: Competitive binding with anti-CD40-FITC antibody 5C3, flow cytometry; conditions: 25 nM-50 nM antibody, 30 min on ice
Chain of CD40 on CD19+ cells (P25942 21-277): as the sequence (P25942 21-277) above

Human CD40-avi = Human CD40-avi (Homo sapiens, UniProt P25942); test: SPR kinetic measurements (single cycle kinetics) on captured IgG2, hCD40-avi; conditions: 1:1 Langmuir binding model
Chain of Human CD40-avi (P25942 21-193): as the sequence (P25942 21-193 limits assumed) above

14GIIICII scFv = assay type: binding, mouse
IBIIICI scFv = assay type: binding, mouse
[4] = test system: human monocyte-derived dendritic cells; test: Internalisation of antibody into dendritic cells; conditions: 125 nM antibody
[5] = test system: human monocyte-derived DC (MoDC); test: MoDC activation, flow cytometry of surface activation markers (t-SNE); conditions: 125 nM antibody, 48 hours of stimulation

Molecule | Kd (14GIIICII scFv) [nM] | ka (14GIIICII scFv) [M⁻¹ s⁻¹] | kd (14GIIICII scFv) [s⁻¹] | ka (IBIIICI scFv) [M⁻¹ s⁻¹] | Kd (IBIIICI scFv) [nM] | kd (IBIIICI scFv) [s⁻¹] | also measured
X-SM083-ab-5: agonistic anti-CD40 antibody CP-870,893 (US 2017/0342159) as hIgG2 | – | – | – | – | – | – | competition with / blocking of CD40 ligand [1]: without blocking CD40 ligand interaction; kd (Human CD40-Fc [2]): 3.6e-05 s⁻¹; Kd (Human CD40-Fc [2]; read-out: ^appKD): 0.2 nM; Ka (Human CD40-Fc [2]; optimised follow-up experiment): 190000 M⁻¹ s⁻¹; ka (Cynomolgus CD40-Fc): 91000 M⁻¹ s⁻¹; kd (Cynomolgus CD40-Fc): 2.5e-05 s⁻¹; ka (Human CD40-Fc [3]): 66000 M⁻¹ s⁻¹; kd (Human CD40-Fc [3]): 3.2e-05 s⁻¹; Ka (Canine CD40-Fc; Canine CD40-Fc, 1:1 Binding): 170000 M⁻¹ s⁻¹; kd (Canine CD40-Fc; Canine CD40-Fc, 1:1 Binding): 0.00041 s⁻¹; affinity for canine CD40 lower than for the human orthologue (Canine CD40-Fc; canine vs human CD40-Fc): approximately 10 times; binding to canine CD40 (Canine CD40-Fc; in words): exhibited binding to canine CD40; binding to canine (dog) CD40 (canine (dog) CD40): does not bind to canine (dog) CD40; 5C3-FITC staining after pre-incubation with antibody (CD40 on CD19+ cells): loss of the FITC signal; Kd (Human CD40-avi): 18 nM; ka (Human CD40-avi): 62000 M⁻¹ s⁻¹; kd (Human CD40-avi): 0.0011 s⁻¹
FIGITELKKLESKIN [UU71] | 0.6 | 540000 | 0.00032 | 230000 | – | – | kd (1/s) (IBIIICI scFv): * (key: *: too low for, or very close to the detection limit of, instrument specification (<10^−5))
FIGITELKKLESKINKVF (SEQ ID NO: 25), C-term K-biotin; full length MTTE [UU24] | 0.3 | 660000 | 0.0002 | 190000 | 0.12 | 2.3e-05 | –
FIGITELKKLESKI [UU72] | 0.6 | 570000 | 0.00034 | 250000 | – | – | kd (1/s) (IBIIICI scFv): * (key: *: too low for, or very close to the detection limit of, instrument specification (<10^−5))
FIGITELKKLES [UU74] | 1.7 | 570000 | 0.00095 | 280000 | 0.12 | 3.3e-05 | –
FIGITELKKLESK [UU73] | 0.87 | 510000 | 0.00044 | 200000 | 0.34 | 6.7e-05 | –
FIGITELKKLESKINK [UU70] | 0.29 | 650000 | 0.00019 | 230000 | 0.16 | 3.7e-05 | –
B1 | – | – | – | – | – | – | competition with / blocking of CD40 ligand [1]: No competition between this antibody and CD40 ligand was observed; internalisation ([4]; after 60 min at 37° C.): 50%; antibodies remained extracellular ([4]; after 4 h incubation): Approximately 30%; ka (Cynomolgus CD40-Fc): 490000 M⁻¹ s⁻¹; kd (Cynomolgus CD40-Fc): 0.0018 s⁻¹; Kd (Cynomolgus CD40-Fc; read-out: ^appKD, Cynomolgus CD40-Fc, apparent affinity, 1:1 Langmuir model): 3.8 nM; ka (Human CD40-Fc [3]): 320000 M⁻¹ s⁻¹; kd (Human CD40-Fc [3]): 0.0014 s⁻¹; Kd (Human CD40-Fc [3]; read-out: ^appKD, Human CD40-Fc, apparent affinity, 1:1 Langmuir model): 4.6 nM; agonistic profile, t-SNE cluster of surface expression of CD14, CD1a, CD40, HLA-DR, CD86 and CD83 [5]: potent agonistic profile; Kd (Human CD40-avi): 180 nM; ka (Human CD40-avi): 750000 M⁻¹ s⁻¹; kd (Human CD40-avi): 0.14 s⁻¹
